# According to US11844803B2, “Renal dysfunction improving drug comprising optical isomer of 1,4-benzothiazepine-1-oxide derivative” (AETAS PHARMA CO., LTD., priority 2017, dated 2023):
# Where two headings read alike, the source gives them in different places.
# Experiments:
# [1] = Stability and solubility properties of the substance; format: physicochemical
# [2] = Skin irritating property
# [3] = test system: dog renal function; test: Action on dog renal function, anesthetized beagle, ureter cannulation, cumulative i.v. doses; format: in vivo
# Description: Method: 5 mg/kg of ketamine hydrochloride (KETALAR FOR INTRAMUSCULAR INJECTION 500 mg, 50 mg/mL, DAIICHI SANKYO COMPANY, LIMITED) was intramuscularly administered to a 10 to 12 kg beagle dog (n=4) as a preanesthetic administration, and then anesthesia was performed by inhale of isoflurane. After intratracheal intubation, isoflurane was inhaled in a range of 1 to 5%, artificial ventilation was carried out, and a tracheal tube was intubated and mounted on a ventilator. The examinations were performed under the ventilation conditions of 10 to 25 mL/kg/stroke and 10 to 20 stroke/min. The lower abdomen was incised, the dog was cannulated in the ureters at the both sides, and urine was continually collected. After the urination became constant, the compound (A) as the first optical isomer component which had been obtained in Example 2 was dissolved in physiological saline, and cumulative doses of 0.1 mg/kg, 0.3 mg/kg, 1 mg/kg, and 3 mg/kg of Compound (A) were administered through the leg veins for 20 minutes each.
# A blood sample was obtained before the start of administration of the compound [IV] and every 20 minutes after completion of administration beginning at a time immediately after completion of administration (0 minutes), and changes in urine volume from the ureters at the both sides, Na in urine, K in urine, and a serum creatinine value were examined every 20 minutes.
# [4] = test system: ischemia/reperfusion injury in kidneys; test: Rat kidney ischemia/reperfusion injury model (renal arteries clamped 45 minutes, then reperfusion); format: in vivo, SD rats; conditions: 48 hours after administration; hydrochloride, 6 mg/kg in total; n=6; placebo 6.07±0.36; before administration 0.27±0.01
# Description: Method: Eleven 8-week-old male SD rats were used and laparotomized under anesthesia, the renal artery of the left kidney, and then after 1 minute, that of the right kidney were clamped using a non-traumatic clip for 45 minutes, and then reperfusion was performed.
# The hydrochloride of the first optical isomer component (compound (A)) of the formula [IV] of the present invention was dissolved in physiological saline, and 4 mg/kg (before ischemia) and 2 mg/kg (before and after reperfusion) of the compound (A) (6 mg/kg in total) were administered for 10 minutes before ischemia and before and after reperfusion, respectively. On the other hand, the placebo group was subjected to the same procedure as in the compound (A)—administration group in every way except that only physiological saline was administered instead of physiological saline solution of the hydrochloride of the compound (A). […]
# For calculation of a creatinine clearance value, the total urine of during 60 minutes before administration and during 0 to 8, 8 to 24, and 24 to 48 hours after administration were collected in each rat, and the urine volume and the value of creatinine in urine were measured. Further, a blood sample was obtained before administration and after 4, 8, 24, and 48 hours of administration and serum creatinine values were measured over time. […]
# [5] = test system: human renal function; test: Action on human renal function: 8-hour urine volume after i.v. administration, double-blinded; format: in vivo, adult human (male); conditions: for total urine volume from 0 to 8 hours after administration: hydrochloride, 6 persons, placebo 459.8 (±184.1)
# Description: After an adult was caused to completely urinate before administration of the compound (A), the compound (A) was administered to the adult. The study was performed in a double-blinded manner.
# (§1) Method: Three groups including a group with 0 mg/kg of the compound (A) being administered (placebo group: 8 persons), a group with 0.05 mg/kg of the compound (A) being administered (6 persons), and a group with 0.15 mg/kg of the compound (A) being administered (6 persons) were made. The hydrochloride of the compound (A) was dissolved in physiological saline and intravenously administered at a rate of 2.5 mL/min for 20 minutes. The urine volume from a time immediately after administration to a time after 8 hours of administration and the maximum plasma concentration immediately after administration were measured.
# [6] = Maximum plasma concentration immediately after i.v. administration in adult human; format: in vivo, adult human (male); conditions: 0.15 mg/kg i.v. for 20 minutes, hydrochloride, 6 persons
# Description: as §1
# [7] = test system: dog with complete atrioventricular block; test: Torsades de Pointes in dog with complete atrioventricular block; format: in vivo; conditions: dose not given
# [8] = test system: dog with complete atrioventricular block; conditions: 1.2 mg/kg body weight; Non-Patent Document 3; cited from earlier work
smiles,measurement,setting,value
"COc1ccc2c(c1)CN(C(=O)CCN1CCC(Cc3ccccc3)CC1)CC[S+]2[O-] (stereo not drawn) [compound having the above formula [Ia]] [4-[3-(4-benzylpiperidin-1-yl)propionyl]-7-methoxy-2,3,4,5-tetrahydro-1,4-benzothiazepine-1-oxide]",solubility,[1],easily dissolved in ethanol and dimethyl sulfoxide (DMSO)
same,stability,[1]; room temperature,"stable to oxygen, humidity, acid, and alkali"
same,skin irritating property,[2],has a skin irritating property
"COc1ccc2c(c1)CN(C(=O)CCN1CCC(Cc3ccccc3)CC1)CC[S+]2[O-] (single isomer, unassigned) [compound (A), 4-[3-(4-benzylpiperidin-1-yl)propionyl]-7-methoxy-2,3,4,5-tetrahydro-1,4-benzothiazepine-1-oxide]",excretion amount of sodium (amount of urinary sodium) vs control,"[3]; after 1 mg/kg and 3 mg/kg i.v. (cumulative doses), n=4, FIG. 5",significant increase
same,excretion amount of potassium (amount of urinary potassium) vs control,"[3]; after 1 mg/kg and 3 mg/kg i.v. (cumulative doses), n=4, FIG. 6",significant increase
same,serum creatinine value vs control,"[3]; after 1 mg/kg and 3 mg/kg i.v. (cumulative doses), n=4, FIG. 7",significant decrease
same,urine volume vs control,"[3]; after 1 mg/kg and 3 mg/kg i.v. (cumulative doses, 20 minutes each), n=4, paired t, FIG. 4",significant increase
same,serum creatinine value,[4],3.02 ± 0.82 mg/dL
same,total urine volume from 0 to 8 hours after administration,[5]; 0.05 mg/kg i.v. for 20 minutes,545.2 (±362.1) mL
same,increase in urine volume as compared to the placebo group (significance),"[5]; 0.05 mg/kg i.v., 0 to 8 hours",significant (p<0.05) increase in urine volume was not recognized
same,total urine volume from 0 to 8 hours after administration,[5]; 0.15 mg/kg i.v. for 20 minutes,914.2 (±431.0) mL
same,increase in urine volume as compared to the placebo group (significance),"[5]; 0.15 mg/kg i.v., 0 to 8 hours",significant (p<0.05) increase
same,urine volume relative to that of the placebo group,"[5]; 0.15 mg/kg i.v., 0 to 8 hours",approximately two times
same,blood concentration immediately after administration,[6],349.3 ± 93.7 ng/mL
same,occurrence of Torsades de Pointes,[7],does not cause Torsades de Pointes
same,solubility,[1],water-soluble
"COc1ccc2c(c1)CN(C(=O)CCN1CCC(Cc3ccccc3)CC1)CC[S+]2[O-] (stereo not drawn) [oxalate of the compound [Ia]] [4-[3-(4-benzylpiperidin-1-yl)propionyl]-7-methoxy-2,3,4,5-tetrahydro-1,4-benzothiazepine-1-oxide]",solubility,[1],"soluble in water, ethanol, and dimethyl sulfoxide"
"COc1ccc2c(c1)CN(C(=O)CCN1CCC(Cc3ccccc3)CC1)CCS2 [JTV519, 4-[3-(4-benzylpiperidin-1-yl)propionyl]-7-methoxy-2,3,4,5-tetrahydro-1,4-benzothiazepine]",occurrence of Torsades de Pointes,[8],Torsades de Pointes that is life-threatening arrhythmia occurs
